Paper PMC8185074, “Anchor extension: a structure-guided approach to design cyclic peptides targeting enzyme active sites” (Nature Communications, 2021)
Read-outs that look alike come from different tables or passages of the source. Peptide text beside a SMILES is read from it.

How the values were obtained:
Format in all cases: biochemical
HDAC6 = target: T1, HDAC6 (Homo sapiens, UniProt Q9UBN7); assay: HDAC6 inhibition, full IC50 measurement (Reaction Biology; fluorogenic p53 peptide RHKK(Ac)AMC)
T1 construct: purchased Reaction Biology Corporation (assay run by the CRO)
T1 sequence (Q9UBN7 1-1215): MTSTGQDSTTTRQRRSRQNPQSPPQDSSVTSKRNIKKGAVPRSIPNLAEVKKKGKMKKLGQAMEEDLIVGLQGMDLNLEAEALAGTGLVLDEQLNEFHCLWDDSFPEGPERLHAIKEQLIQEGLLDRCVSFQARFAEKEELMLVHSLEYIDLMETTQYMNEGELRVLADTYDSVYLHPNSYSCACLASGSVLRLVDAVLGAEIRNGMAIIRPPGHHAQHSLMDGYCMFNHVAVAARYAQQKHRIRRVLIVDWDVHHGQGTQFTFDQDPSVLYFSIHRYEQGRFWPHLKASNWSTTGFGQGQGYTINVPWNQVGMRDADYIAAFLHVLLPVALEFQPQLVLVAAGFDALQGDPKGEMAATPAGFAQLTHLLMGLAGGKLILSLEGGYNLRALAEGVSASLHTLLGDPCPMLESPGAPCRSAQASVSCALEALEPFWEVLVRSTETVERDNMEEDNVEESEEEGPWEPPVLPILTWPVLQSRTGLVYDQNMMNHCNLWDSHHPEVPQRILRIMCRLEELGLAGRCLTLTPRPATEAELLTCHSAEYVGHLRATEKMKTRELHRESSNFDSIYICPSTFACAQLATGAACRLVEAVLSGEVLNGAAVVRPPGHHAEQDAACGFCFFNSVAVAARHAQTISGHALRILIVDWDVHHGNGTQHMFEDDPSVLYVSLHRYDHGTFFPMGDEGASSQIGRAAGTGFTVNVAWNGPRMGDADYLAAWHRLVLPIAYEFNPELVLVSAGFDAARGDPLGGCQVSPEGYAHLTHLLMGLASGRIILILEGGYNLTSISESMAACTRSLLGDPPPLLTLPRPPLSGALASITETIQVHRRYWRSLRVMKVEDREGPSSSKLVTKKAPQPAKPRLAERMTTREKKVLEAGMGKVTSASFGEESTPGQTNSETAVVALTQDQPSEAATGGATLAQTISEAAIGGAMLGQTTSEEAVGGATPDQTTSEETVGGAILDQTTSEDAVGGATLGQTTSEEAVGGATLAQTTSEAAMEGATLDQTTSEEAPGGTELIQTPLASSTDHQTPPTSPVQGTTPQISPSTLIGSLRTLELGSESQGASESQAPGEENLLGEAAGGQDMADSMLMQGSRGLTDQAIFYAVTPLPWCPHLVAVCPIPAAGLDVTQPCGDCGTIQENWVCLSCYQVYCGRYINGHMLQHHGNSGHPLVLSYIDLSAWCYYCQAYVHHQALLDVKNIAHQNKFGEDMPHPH
Procedure, shortened: (§1)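 Deacetylation of 50 μM RHKK(Ac)AMC is measured after 1 h at 30 °C in pH 8.0 Tris buffer (1% DMSO, 1 mg/ml BSA). Developer ends the reaction; the post-plateau 360/460 nm signal is fitted to IC50, averaging replicate measurements.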

HDAC3 = target: T2, HDAC3 (Homo sapiens, UniProt O15379); assay: HDAC3 inhibition, full IC50 measurement (Reaction Biology; fluorogenic p53 peptide RHKK(Ac)AMC)
T2 construct: purchased Reaction Biology Corporation (assay run by the CRO)
T2 sequence (O15379 whole entry): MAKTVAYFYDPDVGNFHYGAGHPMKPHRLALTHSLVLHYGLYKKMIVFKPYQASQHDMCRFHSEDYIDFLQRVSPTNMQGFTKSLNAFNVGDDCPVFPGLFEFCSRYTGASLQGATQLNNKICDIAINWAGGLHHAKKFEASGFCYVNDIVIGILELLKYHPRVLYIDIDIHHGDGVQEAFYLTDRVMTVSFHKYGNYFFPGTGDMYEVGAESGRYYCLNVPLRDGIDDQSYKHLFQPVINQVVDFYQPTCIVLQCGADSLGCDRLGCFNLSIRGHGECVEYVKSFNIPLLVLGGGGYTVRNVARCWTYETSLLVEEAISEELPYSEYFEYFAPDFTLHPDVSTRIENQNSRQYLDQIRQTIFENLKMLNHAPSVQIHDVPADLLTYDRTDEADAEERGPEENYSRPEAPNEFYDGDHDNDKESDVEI
T2 sequence (Q9Y618 395-489 partner limits assumed): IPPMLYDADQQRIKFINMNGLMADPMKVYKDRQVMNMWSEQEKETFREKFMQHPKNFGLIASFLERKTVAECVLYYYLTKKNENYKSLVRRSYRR
Procedure, shortened: as §1

HDAC2 = target: T3, HDAC2 (Homo sapiens, UniProt Q92769); assay: Initial HDAC2 IC50 estimate (BPS Biosciences HDAC fluorogenic assay kit)
T3 construct: purchased Reaction Biology Corporation (assay run by the CRO)
T3 sequence (Q92769 whole entry): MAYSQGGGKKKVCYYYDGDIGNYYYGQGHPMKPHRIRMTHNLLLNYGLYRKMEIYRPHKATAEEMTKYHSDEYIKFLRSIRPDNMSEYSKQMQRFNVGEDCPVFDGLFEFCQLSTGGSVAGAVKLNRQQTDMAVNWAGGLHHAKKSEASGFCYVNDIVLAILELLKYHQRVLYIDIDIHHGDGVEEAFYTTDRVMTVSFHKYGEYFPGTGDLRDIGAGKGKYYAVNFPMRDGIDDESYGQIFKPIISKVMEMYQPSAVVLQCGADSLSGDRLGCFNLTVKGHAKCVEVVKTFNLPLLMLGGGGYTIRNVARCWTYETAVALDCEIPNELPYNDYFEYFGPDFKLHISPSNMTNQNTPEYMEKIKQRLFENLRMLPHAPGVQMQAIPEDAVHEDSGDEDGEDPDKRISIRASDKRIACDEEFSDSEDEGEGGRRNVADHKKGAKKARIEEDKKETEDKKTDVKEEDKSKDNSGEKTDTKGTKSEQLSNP
Procedure, shortened: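 Inhibition measured by kit-based fluorogenic HDAC activity assays, with each point in duplicate or triplicate. Values come from a full 1 µM–100 pM series (1:10 steps) or are range estimates from just 20 nM and 200 nM.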

N=C(N)NCCC[C@@H]1NC(=O)[C@@H](CCCNC(=N)N)NC(=O)[C@H]2CCCN2C(=O)[C@@H](Cc2c[nH]cn2)NC(=O)[C@H](Cc2ccc(O)cc2)NC(=O)[C@H](CCCCCS)NC(=O)[C@H](CCc2ccccc2)NC(=O)[C@@H](CO)NC(=O)[C@H](CC(=O)O)NC1=O [des3.3.1, SHA-Tyr-dHis-dPro-dArg-Arg-Asp-dSer-C27] (HELM PEPTIDE1{[O=C([C@H](CCCCCS)N[*:1])[*:2]].Y.[dH].[dP].[dR].R.D.[dS].[O=C([C@H](CCc1ccccc1)N[*:1])[*:2]]}$PEPTIDE1,PEPTIDE1,1:R1-9:R2$$$V2.0)
HDAC6 activity raw data (signal) (HDAC6; Conc. 1.00E-05 M, t1): 557 | HDAC6 activity raw data (signal) (HDAC6; Conc. 1.00E-05 M, t2): -139 | HDAC6 activity raw data (signal) (HDAC6; Conc. 1.11E-06 M, t1): 10535 | HDAC6 activity raw data (signal) (HDAC6; Conc. 1.11E-06 M, t2): 12694 | HDAC6 activity raw data (signal) (HDAC6; Conc. 1.23E-07 M, t1): 31520 | HDAC6 activity raw data (signal) (HDAC6; Conc. 1.23E-07 M, t2): 38979 | HDAC6 activity raw data (signal) (HDAC6; Conc. 1.37E-08 M, t1): 82998 | HDAC6 activity raw data (signal) (HDAC6; Conc. 1.37E-08 M, t2): 93685 | HDAC6 activity raw data (signal) (HDAC6; Conc. 1.52E-09 M, t1): 115704 | HDAC6 activity raw data (signal) (HDAC6; Conc. 1.52E-09 M, t2): 134545 | HDAC6 activity raw data (signal) (HDAC6; Conc. 3.33E-06 M, t1): 4544 | HDAC6 activity raw data (signal) (HDAC6; Conc. 3.33E-06 M, t2): 5827 | HDAC6 activity raw data (signal) (HDAC6; Conc. 3.70E-07 M, t1): 20428 | HDAC6 activity raw data (signal) (HDAC6; Conc. 3.70E-07 M, t2): 19976 | HDAC6 activity raw data (signal) (HDAC6; Conc. 4.12E-08 M, t1): 50772 | HDAC6 activity raw data (signal) (HDAC6; Conc. 4.12E-08 M, t2): 68185 | HDAC6 activity raw data (signal) (HDAC6; Conc. 4.57E-09 M, t1): 115536 | HDAC6 activity raw data (signal) (HDAC6; Conc. 4.57E-09 M, t2): 120171 | HDAC6 activity raw data (signal) (HDAC6; Conc. 5.08E-10 M, t1): 151999 | HDAC6 activity raw data (signal) (HDAC6; Conc. 5.08E-10 M, t2): 154121 | HDAC3 activity raw data (signal) (HDAC3; Conc. 1.00E-05 M, t1): -3010 | HDAC3 activity raw data (signal) (HDAC3; Conc. 1.00E-05 M, t2): -2975 | HDAC3 activity raw data (signal) (HDAC3; Conc. 1.11E-06 M, t1): -3312 | HDAC3 activity raw data (signal) (HDAC3; Conc. 1.11E-06 M, t2): 10427 | HDAC3 activity raw data (signal) (HDAC3; Conc. 1.23E-07 M, t1): 21751 | HDAC3 activity raw data (signal) (HDAC3; Conc. 1.23E-07 M, t2): 40450 | HDAC3 activity raw data (signal) (HDAC3; Conc. 1.37E-08 M, t1): 79797 | HDAC3 activity raw data (signal) (HDAC3; Conc. 1.37E-08 M, t2): 111435 | HDAC3 activity raw data (signal) (HDAC3; Conc. 1.52E-09 M, t1): 143913 | HDAC3 activity raw data (signal) (HDAC3; Conc. 1.52E-09 M, t2): 186935 | HDAC3 activity raw data (signal) (HDAC3; Conc. 3.33E-06 M, t1): -4595 | HDAC3 activity raw data (signal) (HDAC3; Conc. 3.33E-06 M, t2): 4931 | HDAC3 activity raw data (signal) (HDAC3; Conc. 3.70E-07 M, t1): 9528 | HDAC3 activity raw data (signal) (HDAC3; Conc. 3.70E-07 M, t2): 17560 | HDAC3 activity raw data (signal) (HDAC3; Conc. 4.12E-08 M, t1): 66179 | HDAC3 activity raw data (signal) (HDAC3; Conc. 4.12E-08 M, t2): 74103 | HDAC3 activity raw data (signal) (HDAC3; Conc. 4.57E-09 M, t1): 114353 | HDAC3 activity raw data (signal) (HDAC3; Conc. 4.57E-09 M, t2): 144441 | HDAC3 activity raw data (signal) (HDAC3; Conc. 5.08E-10 M, t1): 223427 | HDAC3 activity raw data (signal) (HDAC3; Conc. 5.08E-10 M, t2): 239829 | IC50 (HDAC2; Supp. Table 4, rough estimates, for promising hits full measurements, read-out: HDAC2 activity (initial values for HDAC2 IC50)): 25 nM | IC50 (HDAC2; Supplementary Dataset 2, read-out: HDAC2 activity (initial activity)): 20 nM
